Source: publication PMC9668928, “Zandelisib (ME-401) in Japanese patients with relapsed or refractory indolent non-Hodgkin’s lymphoma: an open-label, multicenter, dose-escalation phase 1 study” (International Journal of Hematology, 2022)
Several values for one entry are separate records, joined by “and”; a condition that tells them apart may be missing. Equal entries are not always repeated.

Columns and labels:
[1] = system: PI3Kδ signaling pathway; parameters: method as in PMID 21378270, PMID 21803855, PMID 20959606, PMID 31506873; settings: read-out: half maximal inhibitory concentration [IC50]; cited from earlier work
[2] = system: patients with B-cell malignancies; settings: phase 1b; cited from earlier work
[3] = system: basophil activation; parameters: method as in PMID 30458930; settings: 60 mg/day; cited from earlier work
[4] = system: relapsed/refractory indolent non-Hodgkin's lymphoma (R/R iNHL); experiment: Phase 1 study: anti-tumor efficacy, investigator-assessed, modified Lugano criteria; assay type: in vivo, human
Method: Efficacy endpoints included ORR; duration of response (DOR); progression-free survival (PFS); time to first response (TTR); and change in tumor size from baseline. Response was assessed by investigators based on the modified Lugano Classification lymphoma response criteria (modified Lugano criteria). If complete response (CR) was achieved by CT- or MRI-based assessment (not including bone marrow biopsy), PET/CT was performed to assess metabolic response (except for patients whose FDG-avidity was “non-avid” in the screening test). Additionally, a bone marrow biopsy was also performed if complete metabolic response was confirmed by PET/CT-based assessment. For efficacy outcomes, the Clopper–Pearson method was used to obtain 95% confidence intervals (CIs) for ORR. The Kaplan–Meier method was used to estimate the DOR and PFS for each cohort and overall. Statistical analyses were performed using SAS® software version 9.4 (SAS Institute Inc., Cary, NC, USA).

[5] = N = 9, median follow-up 17.5 months

## CN1CCC(c2ccccc2CC(C)(C)Nc2nc(N3CCOCC3)nc(-n3c(C(F)F)nc4ccccc43)n2)CC1 [zandelisib]
[1]
  IC50: 0.6 nM
[2]
  dose-limiting toxicities (DLTs): No dose-limiting toxicities (DLTs) were reported
  maximum tolerated dose (MTD): not reached
  objective response rate (ORR): 79%
  recommended phase 2 dose (RP2D): 60 mg/day
[3]
  target inhibition at trough plasma concentrations: ≥ 90%
[4]; 45 mg group
  median PFS: 11.1 months
[4]; 45 mg, n = 3
  Best overall response: Complete response: 0 (0.0) n (%)
  Best overall response: Partial response: 3 (100.0) n (%)
  Best overall response: Progressive disease: 0 n (%)
  Best overall response: Stable disease: 0 n (%)
  Objective response rate, % (95% CI): 100.0 (29.2–100.0) %
[4]; 60 mg group
  median DOR: 11.3 months
  median PFS: 13.3 months
[4]; 60 mg, n = 6
  Best overall response: Complete response: 2 (33.3) n (%)
  Best overall response: Partial response: 4 (66.7) n (%)
  Best overall response: Progressive disease: 0 n (%)
  Best overall response: Stable disease: 0 n (%)
  Objective response rate, % (95% CI): 100.0 (54.1–100.0) %
[4]; [5]
  median duration of response (DOR): 7.9 months and 7.9 (95% CI 2.8–14.7) months
  median progression-free survival (PFS): 11.1 months and 11.1 (95% CI 4.6–16.7) months
  median time to response (TTR): 1.9 months and 1.9 (95% CI 1.8–2.1) months
[4]; N = 9, 2 FL patients receiving 60 mg/day
  complete response (CR) rate: 22.2% and 22%
[4]; Total, N = 9
  Best overall response: Complete response: 2 (22.2) n (%)
  Best overall response: Partial response: 7 (77.8) n (%)
  Best overall response: Progressive disease: 0 n (%)
  Best overall response: Stable disease: 0 n (%)
  Objective response rate, % (95% CI): 100.0 (66.4–100.0) %
[4]; after 2 administration cycles
  patients achieved response at week 8: 8/9
[4]; all patients, N = 9
  decrease from baseline in the sum of perpendicular diameters: > 50%
[4]; cohort 1, 45 mg
  best overall response of partial response (PR): 3/3
[4]; cohort 2, 60 mg
  best overall response of CR: 2/6
  best overall response of PR: 4/6
[4]; of patients switched back to CS after PD
  patients regained response after switching back from IDT to CS: 2/4
